Experimental data taken from PubChem BioAssay (NCI).
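Interpolation was linear, between the two tested concentrations surrounding the appropriate level; five concentrations were tested over 48 hours in 96-well plates. Here, GI50 denotes the concentration required for 50% inhibition of growth. The concentration for full growth arrest is given as TGI.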

Key:
Test in all cases: NCI tumour cell line growth inhibition, 48 h
CAKI-1 renal = system: CAKI-1 renal
HCT-15 colon = system: HCT-15 colon
HL-60(TB) leukemia = system: HL-60(TB) leukemia
HOP-62 NSCLC = system: HOP-62 NSCLC
NCI-H226 lung = system: NCI-H226 lung
NCI-H522 lung = system: NCI-H522 lung
OVCAR-3 ovarian = system: OVCAR-3 ovarian
SF-268 CNS = system: SF-268 CNS
TK-10 renal = system: TK-10 renal
UACC-62 melanoma = system: UACC-62 melanoma

Row | Compound | TGI (CAKI-1 renal) [µM] | TGI (HCT-15 colon) [µM] | TGI (HL-60(TB) leukemia) [µM] | TGI (HOP-62 NSCLC) [µM] | TGI (NCI-H226 lung) [µM] | TGI (NCI-H522 lung) [µM] | TGI (OVCAR-3 ovarian) [µM] | TGI (SF-268 CNS) [µM] | TGI (TK-10 renal) [µM] | TGI (UACC-62 melanoma) [µM] | GI50 (CAKI-1 renal) [µM] | GI50 (HCT-15 colon) [µM] | GI50 (HL-60(TB) leukemia) [µM] | GI50 (NCI-H226 lung) [µM] | GI50 (NCI-H522 lung) [µM] | GI50 (OVCAR-3 ovarian) [µM] | GI50 (SF-268 CNS) [µM] | GI50 (TK-10 renal) [µM] | GI50 (UACC-62 melanoma) [µM]
1 | CC(C)(C)[Si](C)(C)Oc1ccc(C2CNC(=O)C23CCC(=O)N3Cc2ccccc2)cc1 (centres undefined) | 45 | 30 | 49.2 | 53.3 | 44.8 | 29.2 | 33 | 26 | 51.8 | 32 |  |  |  |  |  |  |  |  | 
2 | NCCCn1c2c(c3ccc([N+](=O)[O-])cc3c1=O)C(=O)c1ccccc1-2 | 0.494 | 0.81 | > 19.3 |  | 0.118 | > 50 | 0.525 | > 12.2 | 1.83 | 0.431 | 0.0276 | 0.029 | 0.031 | 0.0151 | 0.462 | 0.0966 | 0.24 | 0.212 | 0.102
3 | CC(=O)NNc1nc(-c2ccc([N+](=O)[O-])cc2)c(C#N)c(=O)n1C | > 100 | > 100 | 82.6 | 52.5 |  | 45.6 | 31.4 | > 100 | 72.8 | > 100 |  |  |  |  |  |  |  |  | 
4 | COc1cc(C2CC(c3cccc(Nc4ccncc4)c3)=NN2c2ccc(Cl)cc2)cc(OC)c1OC (centres undefined) | 2.76 | 3.28 |  |  | 3.59 |  | 3.03 | 3.06 |  | 3.14 | 1.41 | 1.7 |  | 1.66 |  | 1.61 | 1.58 |  | 1.69
5 | CCOC(=O)c1c2c(n(Cc3ccccc3)c1C)C(=O)C(=O)c1ccccc1-2 | 0.984 | 2.58 | 0.0983 | 0.536 | 1.22 |  | 0.167 | 1.27 | 1.18 | 1.65 |  |  |  |  |  |  |  |  | 
6 | Oc1cn(-c2ccc(Cl)cc2)nc1-c1n[nH]c(=S)n1-c1ccccc1 | 35.3 | 14.9 | > 100 | 22.7 | 59.8 | 19.5 | 9.4 | 64.2 | 58.7 | 28 |  |  |  |  |  |  |  |  | 
7 | Cc1cc2c(cc1C(=O)c1ccc(N)cc1)OCO2 | 66.4 | > 100 | > 100 | > 100 |  | 54.4 | 0.966 | > 100 | > 100 | > 100 |  |  |  |  |  |  |  |  | 
8 | CN(C)C(=O)/C=C/c1c[nH]c(=O)[nH]c1=O | > 500 | > 500 | > 316 | > 500 | > 500 | > 500 | > 500 | > 500 |  | > 500 |  |  |  |  |  |  |  |  | 
9 | COc1ccc(-c2nc3ncccn3c2-c2ccc(SC)cc2)cc1 | 4.96 | > 100 | 6.61 | 44.3 |  | 0.502 | 2.09 | 3.15 |  | 13 |  |  |  |  |  |  |  |  | 
10 | COc1ccc2c(c1)CCCN2CCCCCCCCCCN(CCC(C)C)CCC(C)C | 28.9 | 23.4 | 9.61 | 26.1 | 31.3 | 5.68 | 17.3 | 25.6 | 31.9 | 27.1 |  |  |  |  |  |  |  |  | 
11 | NCCc1cc(O)c(O)cc1O | 61.5 | 44.5 | 65.6 | 45 | > 100 | 3.44 | 58.4 | 58.5 | > 100 | 74.9 |  |  | 12.8 | 29.6 | 1.53 |  |  |  | 
12 | CCc1nc(N)nc(N)c1-c1ccc([N+](C)(C)C)cc1 | > 100 | > 100 | > 100 | > 100 | > 100 | > 100 | > 100 | > 100 | > 100 | > 100 |  |  |  |  |  |  |  |  | 
13 | COc1cc(/C=C/C(=O)Oc2ccc(NC(C)=O)cc2)ccc1C(=O)O/C=C/c1ccccc1 |  | > 100 | > 100 | > 100 | > 100 | > 100 | > 100 | > 100 |  | > 100 |  |  |  |  |  |  |  |  | 
14 | O=C1NI(C#Cc2ccccc2)c2ccccc21 | > 100 | > 100 | > 100 | > 100 | > 100 |  | > 100 | > 100 | > 100 | > 100 |  |  |  |  |  |  |  |  | 
15 | C[C@H]1C(=O)O[C@@H]2CCN3CC=C(COC(=O)[C@](C)(O)[C@@]1(C)O)[C@H]23 | > 100 | > 100 | > 100 | > 100 | > 100 | > 100 | > 100 | > 100 | > 100 | > 100 |  |  |  |  |  |  |  |  | 
16 | COc1ccc(/C(Cl)=C(\C=O)c2ccc(OC)cc2)cc1 | > 100 | > 100 | 80.9 | > 100 | > 100 | > 100 | > 100 | > 100 | > 100 | > 100 |  |  |  |  |  |  |  |  | 
17 | Nc1n[nH]c(=O)c2c1c(I)cn2C1OC(CO)C(O)C1O (centres undefined) |  | 3.05 | 0.348 | 21.5 | 7.6 |  | > 100 | 25.7 | > 100 | 13.3 |  |  |  |  |  |  |  |  | 
18 | O=P1(c2ccccc2)Nc2ccccc2SSc2ccccc2N1 | 32.4 | 35.8 | 39.6 |  | 33.4 | 29 | 28.3 | 34 |  | 29.8 |  |  |  |  |  |  |  |  | 
19 | O=C(Nc1ccc([N+](=O)[O-])cc1[N+](=O)[O-])C(=O)C(C(=O)c1ccc2ccccc2c1)C1OC(=O)c2ccccc21 (centres undefined) | 54 | 30.7 | 35 | 68.4 | 9.48 | 22.8 |  | 43.1 | 61.7 | 30.2 |  |  |  |  |  |  |  |  | 
